How the values were obtained:
[1] = test system: extrinsic pathway of coagulation in normal human plasma; assay: Clotting assay: prothrombin time (PT); assay type: biochemical
Protocol: (§1) Clotting assays. All clotting times were measured using an Amelung coagulometer. Activated partial thromboplastin time (aPTT) was measured by incubating the peptides diluted in sterile water at the indicated concentrations, with 100 μL citrated human plasma for 1 minute followed by the addition of 100 μL aPTT reagent (aPTT Automate, Diagnostica Stago) for 60 seconds at 37° C. Clotting was initiated by the addition of 100 μL of a 25-mM CaCl2 solution. In the prothombrin time assay (PT), clotting was initiated by the addition of 100 μL Thrombomax with calcium (PT reagent; Sigma-Aldrich). For measuring the thrombin clotting time (TCT), clotting was initiated by the addition of 100 μL Accuclot thrombin time reagent (TCT reagent; Sigma-Aldrich).

[2] = test system: intrinsic pathway of coagulation in normal human plasma; assay: Clotting assay: activated partial thromboplastin time (aPTT); assay type: biochemical
Protocol: as §1

[3] = Properties stated for FFF21 (FIG. 56)
[4] = test system: thrombin induced fibrin network formation in normal human plasma; assay: Clotting assay: thrombin clotting time (TCT); assay type: biochemical
Protocol: as §1

[5] = test system: RAW macrophages; assay: Nitric oxide induction in RAW macrophages by LPS with or without HRG; assay type: cell-based, murine; details: 24 hours
Protocol: Nitric oxide induction in RAW macrophages. Confluent cells were harvested and transferred to 96-wells plate (3.5×10^5/well). After adhesion cells were washed with phenol red-free DMEM (Gibco). E. Coli LPS (100 ng/ml), LL-37 (2 or 10 μM) or HRG (2 or 10 μM) was preincubated at 37° C. for 30 minutes and then transferred to the cells. For inhibition of NO induction, 5 µg/ml anti mouse TLR4 antibody, 10 or 100 µM GHH25 or 100 µg/ml heparin were used. The cells were stimulated for 24 hours and nitric oxide was determined using the Griess chemical method.
Nitric oxide induction in RAW macrophages. Confluent cells were harvested and transferred to 96-wells plate ([…]). After adhesion cells were washed with phenol red-free DMEM (Gibco). E. Coli LPS (100 ng/ml), LL-37 (2 or 10 μM) or HRG (2 or 10 μM) was preincubated at 37° C. for 30 minutes and then transferred to the cells. […] The cells were stimulated for 24 hours and nitric oxide was determined using the Griess chemical method.

[6] = test system: Human monocyte-derived macrophages; assay: TNF-α release from human macrophages; assay type: cell-based; details: 10 ng/ml LPS with or without HRG (2 μM); GHH25 10 and 100 μM; 24 hours
Protocol: TNF-α release from human macrophages. Human monocyte-derived macrophages (hMDMs) were obtained from peripheral blood mononuclear cells (PBMCs) obtained from the blood of healthy donors using a Lymphoprep (Axis-Shield PoC AS) density gradient. PBMCs were seeded at concentrations of 3×10^6 cells/well into 24-well plates and cultured in RPMI1640 medium supplemented with 10% heat-inactivated autologous human plasma, 2 mM L-glutamine, and 50 μl/ml Antibiotic-Antimycotic (Gibco) in a humidified atmosphere of 5% CO2. After 24 h, non-adherent cells were removed and adherent monocytes were differentiated to macrophages for 10 days, with fresh medium changes every second day. […] After stimulation the supernatant was aspirated and TNF-α was measured using the TNF-α human ELISA kit (Invitrogen).

[7] = test system: E. coli LPS induced sepsis in wildtype C57BL/6 mice; assay: LPS induced sepsis in wildtype mice, treatment with GHH25; assay type: in vivo, mouse
Source text: Animal experiments. The original knockout mice 129/B6-HRG^tm1wja1 were crossed with C57BL/6 mice (Taconic) for 14 generations to obtain uniform genetic background. These HRG-deficient mouse strain was called B6-HRG^tm1wja1 following ILAR (Institute of Laboratory Animal Resources) rules. Wildtype C57BL/6 control mice and C57BL/6 Hrg−/− mice (8-12 weeks, 27+/−4 g) were bred in the animal facility at Lund University. C57BL/6 Hrg^−/−, lacks the translation start point of exon 1 of the Hrg gene. Animals were housed under standard conditions of light and temperature and had free access to standard laboratory chow and water. In order to induce sepsis, 18 µg/g Escherichia coli 0111:B4 LPS were injected intraperitoneally into C57BL/6 or C57BL/6 Hrg−/− mice, divided into weight and sex matched groups. Survival and status was followed during seven days.
For treatment with GHH25 peptide, 1 mg of the peptide (diluted in 10 mM Tris, pH 7.4) or buffer only was injected intraperitoneal 30 minutes after LPS-challenge and survival and status was then followed.
Animal experiments. The original knockout mice 129/B6-HRG^tm1wja1 were crossed with C57BL/6 mice (Taconic) for 14 generations to obtain uniform genetic background. These HRG-deficient mouse strain was called B6-HRG^tm1wja1 following ILAR (Institute of Laboratory Animal Resources) rules. […]

[8] = test system: erythrocytes
Protocol: Hemolysis assay. EDTA-blood was centrifuged at 800 g for 10 min, whereafter plasma and buffy coat were removed. The erythrocytes were washed three times and resuspended in PBS, pH 7.4 to get a 5% suspension. The cells were then incubated with end-over-end rotation for 60 min at 37° C. in the presence of peptides (60 μM). 2% Triton X-100 (Sigma-Aldrich) served as positive control. The samples were then centrifuged at 800 g for 10 min and the supernatant was transferred to a 96 well microtiter plate. The absorbance of hemoglobin release was measured at λ 540 nm and is in the plot expressed as % of TritonX-100 induced hemolysis.

[9] = LPS-binding slot-blot assay with iodinated LPS; set-up: species or system Escherichia coli; details: 2 and 5 μg HRG on nitrocellulose; pH 7.4 or pH 5.5, with or without 0.15M NaCl
Protocol: Radioiodination of heparin and LPS. The radioiodination of heparin (from porcine intestinal mucosa, Sigma-Aldrich) was performed as described previously. The iodination of LPS was performed as described by Ulevitch. 1 mg Escherichia coli 0111:B4 LPS was incubated in 50 mM p-OH benzimidate in borate buffer, pH 8, over night at 4° C., and then dialyzed against PBS, pH 7.4. LPS was then radiolabelled with ^125I using the chloramine T method, and unlabelled ^125I was then removed by dialysis.
Heparin and LPS-binding assay. 1, 2 and 5 μg of the synthetic peptides in 100 μl PBS pH 7.4 were applied onto nitrocellulose membranes (Hybond-C, Amersham Biosciences) using a slot-blot apparatus. Membranes were blocked for 1 h at room temperature with 2% bovine serum albumin in PBS pH 7.4 and then incubated with radiolabelled LPS (˜40 μg·mL^−1, 0.13×10^6 cpm·μg^−1) or radiolabelled heparin (˜10 μg·mL^−1, 0.4×10^6 cpm·μg^−1) for 1 h at room temperature in PBS, pH 7.4. […] A Bas 2000 radio-imaging system (Fuji Film, Tokyo, Japan) was used to visualize radioactivity.
Slot-blot assay. […] After LPS binding, membranes were washed 3 times, 10 min each time in the above buffers and visualized for radioactivity on Bas 2000 radioimaging system (Fuji, Japan). […]
Heparin and LPS-binding assay. […] A Bas 2000 radio-imaging system (Fuji Film, Tokyo, Japan) was used to visualize radioactivity.

FFFAKLNCRLYRKANKSSKLV [FFF21, Antithrombin III-derived peptide, aa 153-173 of antithrombin III, P01008]
prothrombin time (PT) [1]: not significantly affected | activated partial thromboplastin time (aPTT) [2]: impairs the intrinsic pathway of coagulation | antibacterial and antiinflammatory properties [3]: antibacterial and antiinflammatory properties | thrombin clotting time (TCT) [4]: not significantly affected

GHHPHGHHPHGHHPHGHHPHGHHPH [GHH25]
LPS and HRG mediated NO release ([5]; 100 ng/ml LPS with or without HRG (2 μM), GHH25 10 and 100 μM): significantly decreased | TNF-α (HRG and LPS induced responses) [6]: inhibits HRG and LPS induced responses | survival ([7]; 1 mg GHH25 i.p. 30 minutes after E. coli LPS, followed seven days, p=0.03): significantly increased survival | health status ([7]; LPS induced sepsis, treatment with GHH25): Improved health status

CC[C@H](C)[C@H](NC(=O)[C@H](CCCCN)NC(=O)[C@H](CCC(=O)O)NC(=O)[C@H](CCCCN)NC(=O)[C@H](CO)NC(=O)[C@H](CCCCN)NC(=O)[C@H](CCCNC(=N)N)NC(=O)[C@H](Cc1ccccc1)NC(=O)[C@H](Cc1ccccc1)NC(=O)[C@H](CC(=O)O)NC(=O)CNC(=O)[C@H](CC(C)C)NC(=O)[C@@H](N)CC(C)C)C(=O)NCC(=O)N[C@@H](CCCCN)C(=O)N[C@@H](CCC(=O)O)C(=O)N[C@@H](Cc1ccccc1)C(=O)N[C@@H](CCCCN)C(=O)N[C@@H](CCCNC(=N)N)C(=O)N[C@H](C(=O)N[C@H](C(=O)N[C@@H](CCC(N)=O)C(=O)N[C@@H](CCCNC(=N)N)C(=O)N[C@H](C(=O)N[C@@H](CCCCN)C(=O)N[C@@H](CC(=O)O)C(=O)N[C@@H](Cc1ccccc1)C(=O)N[C@@H](CC(C)C)C(=O)N[C@@H](CCCNC(=N)N)C(=O)N[C@@H](CC(N)=O)C(=O)N[C@@H](CC(C)C)C(=O)N[C@H](C(=O)N1CCC[C@H]1C(=O)N[C@@H](CCCNC(=N)N)C(=O)N[C@H](C(=O)N[C@@H](CCC(=O)O)C(=O)N[C@@H](CO)C(=O)O)[C@@H](C)O)C(C)C)[C@@H](C)CC)C(C)C)[C@@H](C)CC [LL-37]
doses at which erythrocytes were readily permeabilized [8]: > 6 µM

B1: HRG: 67 kDa plasma protein histidine-rich glycoprotein, purified from human serum (protein, UniProt P04196 19-525, looked up)
Histidine-rich glycoprotein: VSPTDCSAVEPEAEKALDLINKRRRDGYLFQLLRIADAHLDRVENTTVYYLVLDVQESDCSVLSRKYWNDCEPPDSRRPSEIVIGQCKVIATRHSHESQDLRVIDFNCTTSSVSSALANTKDSPVLIDFFEDTERYRKQANKALEKYKEENDDFASFRVDRIERVARVRGGEGTGYFVDFSVRNCPRHHFPRHPNVFGFCRADLFYDVEALDLESPKNLVINCEVFDPQEHENINGVPPHLGHPFHWGGHERSSTTKPPFKPHGSRDHHHPHKPHEHGPPPPPDERDHSHGPPLPQGPPPLLPMSCSSCQHATFGTNGAQRHSHNNNSSDLHPHKHHSHEQHPHGHHPHAHHPHEHDTHRQHPHGHHPHGHHPHGHHPHGHHPHGHHPHCHDFQDYGPCDPPPHNQGHCCHGHGPPPGHLRRRGPGKGPRPFHCRQIGSVYRLPPLRKGEVLPLPEANFPSFPLPHHKHPLKPDNQPFPQSVSESCPGKFKSGFPQVSMFFTHTFPK
LPS mediated NO release ([5]; 100 ng/ml LPS, HRG 2 and 10 μM, n=6, p=0.001): significantly increased | binding of iodinated LPS [9]: LPS-binding

Source: patent US20120189673A1, “POLYPEPTIDES AND USES THEREOF” (priority 2009, published 2012)
